PubChem BioAssay AID1963832 (Molecular Pharmacology Branch, DTP, NCI, 2024)
pIC50: −log10 of the molar value.

System: 885724-159-R-J1-PDC complex spheroid viability
Assay: Anticancer human tumor 885724-159-R-J1-PDC patient-derived pancreatic adenocarcinoma cell line growth inhibition [POLQ]
Settings: for pIC50: curve of first compound; for viability, T/C: stronger effect = lower value
Protocol: Multicellular complex tumor spheroid response to Polymerase (POL) inhibitors (novobiocin, ART-558, RP6685) in combination with a variety of drugs and investigational agents in selected tumor cell lines
The POL inhibitors (novobiocin, ART-558, and RP6685) were evaluated both individually and in combination with standard of care and investigational anticancer small molecules within a complex spheroid model of solid tumors. . Complex spheroids include a stromal component modeled by human endothelial cells (HUVEC) and fibroblasts modeled by human mesenchymal stem cells (MSCs). The concentration ranges selected for each drug and investigational agent were based upon clinically achievable concentrations if the clinical Cmax of the agent was known.
Compounds. The drugs and investigational agents: novobiocin (NSC847541), ART-558 (NSC835418), RP-6685 (NSC848927), peposertib (NSC802822), ceralasertib (NSC780249), elimusertib (NSC800525), camonsertib (NSC841442), AZD-1390 (NSC803789), olaparib (NSC753686), talazoparib (NSC767125), rucaparib (NSC756644), sotorasib (NSC818433), MRTX-1133 (NSC836407), SN-38 (NSC673596), topotecan (NSC609699), epotoside (NSC141540), doxorubicin (NSC123127), gemcitabine (NSC613327), 5-fluorouracil (NSC19893), paclitaxel (NSC125973), vemurafenib (NSC761431), MSA-2 (NSC828583), SN-011 (NSC837082), adavosertib (NSC754352), prexasertib (NSC758257), carboplatin (NSC241240) and oxaliplatin (NSC266046), were obtained from the National Cancer Institute (NCI) Developmental Therapeutics Program Chemical Repository (21). The FDA-approved anticancer drug set is available from the Developmental Therapeutics Program at https://dtp.cancer.gov/organization/dscb/obtaining/. […] The stock solutions were prepared in dimethyl sulfoxide (DMSO, Sigma-Aldrich, St. Louis, MO, cat. D2650), except for the platinum compounds which were prepared in saline (Quality Biological, Gaithersburg, MD, cat. 114-055-101), at 800-fold the tested concentration and stored at -70 degrees C prior to their use. All drugs and investigational agents were tested over a range starting from a high concentration at or near the clinical Cmax and decreasing in half-log increments. If the clinical Cmax for an agent had not been determined, the highest concentration tested was 10 microM, except for SN-38, which was tested at a high concentration of 1 microM.
Cell Culture. All cells were maintained in an incubator at 37 degrees C and 5% CO2 with 95% humidity. The PDC lines were cultured according to standard operating procedures established by the NCI PDMR (https://pdmr.cancer.gov). Table 3 of the manuscript, lists the cell lines along with the number of the three cell types plated to form the mct-spheroids and media for tumor cell growth. After thawing, all PDC lines, except 997537-175-T-J1-PDC and 415267-285-R-J2-PDC, were cultured in Matrigel-coated flasks prepared with a working solution of 1X Ham's F-12 nutrient mix, without supplementation (Thermo Fisher Scientific, cat. 11765054), 100 U/mL penicillin-streptomycin (Thermo Fisher Scientific, cat. 15140122), and 2.5% Matrigel (Corning Inc., Corning, NY, cat. 354248) for the first three passages. The two PDC lines 997537-175-T-J1-PDC and 415267-285-R-J2-PDC were cultured on uncoated flasks. The 857933-349-R-J2-PDC line was cultured in 6C/Colon 1B media containing advanced DMEM/F-12 (Thermo Fisher Scientific, cat. 12634028), 10 mM HEPES (Thermo Fisher Scientific, cat. 15630080), 1X GlutaMAX supplement (Thermo Fisher Scientific, cat. 35050061), 0.1 mg/mL primocin (InvivoGen, San Diego, CA, cat. ant-pm-2), 10% defined fetal bovine serum, heat inactivated (HyClone Laboratories Inc., Logan, UT, cat. SH30070.03HI), 50% L-WRN conditioned media (ATCC, cat. CRL-3276), 1.25 mM N-Acetyl-L-cysteine (Sigma-Aldrich, cat. A9165), 10 mM nicotinamide (Sigma-Aldrich, cat. N0636), 1X B-27 supplement (Thermo Fisher Scientific, cat. 17504044), 1X N-2 supplement (Thermo Fisher Scientific, cat. […]

[1] = second compound 0.0316 µM, first compound 0.0316 µM
[2] = second compound 0.0316 µM, first compound 0.1 µM
[3] = second compound 0.0316 µM, first compound 0.316 µM
[4] = second compound 0.0316 µM, first compound 1 µM
[5] = second compound 0.1 µM, first compound 0.0316 µM
[6] = second compound 0.1 µM, first compound 0.1 µM
[7] = second compound 0.1 µM, first compound 0.316 µM
[8] = second compound 0.1 µM, first compound 1 µM
[9] = second compound 0.316 µM, first compound 0.0316 µM
[10] = second compound 0.316 µM, first compound 0.1 µM
[11] = second compound 0.316 µM, first compound 0.316 µM
[12] = second compound 0.316 µM, first compound 1 µM
[13] = second compound 1 µM, first compound 0.0316 µM
[14] = second compound 1 µM, first compound 0.1 µM
[15] = second compound 1 µM, first compound 0.316 µM
[16] = second compound 1 µM, first compound 1 µM
[17] = second compound 3.16 µM, first compound 0.0316 µM
[18] = second compound 3.16 µM, first compound 0.1 µM
[19] = second compound 3.16 µM, first compound 0.316 µM
[20] = second compound 3.16 µM, first compound 1 µM
[21] = second compound 10 µM, first compound 0.0316 µM
[22] = second compound 10 µM, first compound 0.1 µM
[23] = second compound 10 µM, first compound 0.316 µM
[24] = second compound 10 µM, first compound 1 µM
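Further: spheroids exposed to compounds for 7 days.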

Structure (SMILES): CCc1cc2c(N3CCc4c(cc(Cn5ccnc5)cc4-c4cn(C)nc4C(F)(F)F)C3=O)ccnc2c(OC)n1 + COC1C(OC(N)=O)C(O)C(Oc2ccc3c(O)c(NC(=O)c4ccc(O)c(CC=C(C)C)c4)c(=O)oc3c2C)OC1(C)C
- pIC50 (second compound 0.0316 µM): < 5.00
- pIC50 (second compound 0.1 µM): < 5.00
- pIC50 (second compound 0.316 µM): < 5.00
- pIC50 (second compound 1 µM): < 5.00
- pIC50 (second compound 3.16 µM): < 5.00
- pIC50 (second compound 10 µM): < 5.00
- viability, T/C [1]: 90.9%
- viability, T/C [2]: 76.4%
- viability, T/C [3]: 75.5%
- viability, T/C [4]: 75%
- viability, T/C (second compound 0.0316 µM, first compound 3.16 µM): 75%
- viability, T/C (second compound 0.0316 µM, first compound 10 µM): 70.3%
- viability, T/C [5]: 86.8%
- viability, T/C [6]: 82.1%
- viability, T/C [7]: 80.1%
- viability, T/C [8]: 82.2%
- viability, T/C (second compound 0.1 µM, first compound 3.16 µM): 76.3%
- viability, T/C (second compound 0.1 µM, first compound 10 µM): 68.2%
- viability, T/C [9]: 89.3%
- viability, T/C [10]: 86.1%
- viability, T/C [11]: 72.3%
- viability, T/C [12]: 70.9%
- viability, T/C (second compound 0.316 µM, first compound 3.16 µM): 75.5%
- viability, T/C (second compound 0.316 µM, first compound 10 µM): 64.6%
- viability, T/C [13]: 85.2%
- viability, T/C [14]: 86%
- viability, T/C [15]: 79.5%
- viability, T/C [16]: 83.1%
- viability, T/C (second compound 1 µM, first compound 3.16 µM): 77%
- viability, T/C (second compound 1 µM, first compound 10 µM): 59.1%
- viability, T/C [17]: 87.5%
- viability, T/C [18]: 80.3%
- viability, T/C [19]: 79.8%
- viability, T/C [20]: 72.5%
- viability, T/C (second compound 3.16 µM, first compound 3.16 µM): 75.4%
- viability, T/C (second compound 3.16 µM, first compound 10 µM): 69.5%
- viability, T/C [21]: 80.6%
- viability, T/C [22]: 76.8%
- viability, T/C [23]: 76.6%
- viability, T/C [24]: 80.4%
- viability, T/C (second compound 10 µM, first compound 3.16 µM): 79.5%
- viability, T/C (second compound 10 µM, first compound 10 µM): 64.1%

Structure (SMILES): COc1cccc(OCCCN)c1-c1cc(Nc2cnc(C#N)cn2)n[nH]1 + COC1C(OC(N)=O)C(O)C(Oc2ccc3c(O)c(NC(=O)c4ccc(O)c(CC=C(C)C)c4)c(=O)oc3c2C)OC1(C)C
- pIC50 (second compound 0.0316 µM): 8.28
- pIC50 (second compound 0.1 µM): 8.13
- pIC50 (second compound 0.316 µM): 8.13
- pIC50 (second compound 1 µM): 8.09
- pIC50 (second compound 3.16 µM): 7.75
- pIC50 (second compound 10 µM): 8.17
- viability, T/C (second compound 0.0316 µM, first compound 0.00316 µM): 58.8%
- viability, T/C (second compound 0.0316 µM, first compound 0.01 µM): 45.9%
- viability, T/C [1]: 40.8%
- viability, T/C [2]: 41.1%
- viability, T/C [3]: 44.4%
- viability, T/C [4]: 46.8%
- viability, T/C (second compound 0.1 µM, first compound 0.00316 µM): 62.2%
- viability, T/C (second compound 0.1 µM, first compound 0.01 µM): 46.1%
- viability, T/C [5]: 41.2%
- viability, T/C [6]: 42.3%
- viability, T/C [7]: 45.4%
- viability, T/C [8]: 39%
- viability, T/C (second compound 0.316 µM, first compound 0.00316 µM): 62.6%
- viability, T/C (second compound 0.316 µM, first compound 0.01 µM): 45.3%
- viability, T/C [9]: 43.5%
- viability, T/C [10]: 46.9%
- viability, T/C [11]: 42.5%
- viability, T/C [12]: 40.8%
- viability, T/C (second compound 1 µM, first compound 0.00316 µM): 63.2%
- viability, T/C (second compound 1 µM, first compound 0.01 µM): 48.5%
- viability, T/C [13]: 41.8%
- viability, T/C [14]: 35.9%
- viability, T/C [15]: 45.4%
- viability, T/C [16]: 46.4%
- viability, T/C (second compound 3.16 µM, first compound 0.00316 µM): 58.7%
- viability, T/C (second compound 3.16 µM, first compound 0.01 µM): 55%
- viability, T/C [17]: 44.6%
- viability, T/C [18]: 44.2%
- viability, T/C [19]: 43.2%
- viability, T/C [20]: 39.6%
- viability, T/C (second compound 10 µM, first compound 0.00316 µM): 59.4%
- viability, T/C (second compound 10 µM, first compound 0.01 µM): 45.4%
- viability, T/C [21]: 41.5%
- viability, T/C [22]: 44.3%
- viability, T/C [23]: 43.5%
- viability, T/C [24]: 45.1%
